The values that follow come from patent US7479374B2, “Triacylglycerol-deficient fission yeast and its uses” (priority 2003, dated 2009).

Residues, ends and D or L forms follow the SMILES beside them. *: point of attachment. Cbz = O=C(OCc1ccccc1)*; CH2F = FC*

What all share (type): cell-based, Schizosaccharomyces pombe
The test system of test [1] is WT and DKO S. pombe cells. As to the kind of experiment: DHS, PHS or C2-ceramide treatment: viability and DNA fragmentation. The settings on record: various concentrations, 0-3 hours. The procedure: (§1) Cell viability assay: For cell viability at different growth phases, cells were grown to various densities in YES (determined by OD595). The number of viable cells was obtained after cells were diluted properly in distilled water and plated in triplicates on YES agar. Colonies were scored after 3 days of incubation at 30° C. For cell viability after various treatments, cells were grown to early log phase (OD595=0.1) before lipids or other chemicals were added. After treatment, cells were collected and viability was analyzed as described above.
(§2) DAG, fatty acid and ceramide treatment: For fatty acid treatment, palmitic acid and oleic acid were dissolved in chloroform as 500 mM stock. Each microliter of fatty acids was dissolved in 12.5 μl tyloxapol-enthanol (1:1) and added into growth medium. Wild type and DKO strains were grown to early log phase and then incubated in medium containing different concentrations (0.5 mM, 0.8 mM and 1 mM) of palmitic acid or oleic acid for 0-3 hours. Control groups were cultured in the medium added with the same volume of tyloxapol-enthanol without fatty acids. After incubation, cells were analyzed for viability and DNA fragmentation. DiC8 DAG and ceramide were dissolved in DMSO. The working concentrations for DAG was 0.1 mM, 0.2 mM or 0.3 mM, while for ceramide was 10 μM or 20 μM (23, 24).
(§3) 4′,6-diamidino-2-phenylindole (DAPI) staining: Cells were fixed with 3.7% formaldehyde for 10 minutes, washed once with PBS containing 4% NP40 and twice with PBS, and then stained with DAPI. Cells were viewed using a Leica DMLB microscope.
(§4) Terminal deoxynucleotidyl transferase(TdT)-mediated dUTP nick-end labeling (TUNEL): Cells were fixed with 3.7% formaldehyde for 1 hr, digested with zymolase, washed with PBS, incubated in a permeabilization solution (0.1% Triton in 0.1% sodium citrate) for 2 minutes on ice, washed twice with PBS and incubated with 50 μl TUNEL mixtures for 1 hour at 37° C. Cells were washed with PBS twice and were viewed using a Leica DMLB microscope.

The test system of test [2] is DKO strain (S. pombe Δplh1 Δdga1 double deletion). As to the kind of experiment: Cell viability assay (colony forming) after treatment. As to the method: as §1, §2
Test [3] shares this test system. As to the kind of experiment: Detection of apoptotic markers: DAPI staining and TUNEL (DNA fragmentation). The settings on record: for cells undergoing apoptosis in the presence of the inhibitor / rescue of palmitate-induced apoptosis: double deletion cells treated with 0.8 mM of palmitate; for apoptosis induced by fatty acid: DKO cells, early log phase, two hours (FIGS. 14-16). The procedure:
as §2
Detection of apoptotic markers: All assays in this section were performed as previously described (26).
as §3, §4

In test [4] the test system is DKO cells. As to the kind of experiment: Production of reactive oxygen species (dihydroethidium). The settings on record: for ROS production: incubation of log phase cells. As to the method: Production of reactive oxygen species: ROS were detected by dihydroethidium (Sigma), which was used at 5 μg per ml cell culture. After incubation for 10 minutes, cells were viewed under a Leica DMLB microscope through a Texas Red filter. The free radical spin trap reagent 3,3,5,5,-tetramethyl-pyrroline N-oxide (TMPO) was used at 125 μg per ml cell culture. Cells were pretreated with […] for 2 hours before lipids were added.

Test [5] deals with DKO cells. As to the kind of experiment: Diacylglycerol kinase assay of cellular DAG level. As to the method:
(§5) Diacylglycerol kinase assay: The assay was conducted as described in the Biotrak assay reagents system (Amersham Biosciences). Wild type and DKO yeast cells were grown in YES medium to mid log phase and then treated with medium containing 0.8 mM palmitate or oleate. Cells were collected at different time points (0, 30, 60 and 120 minutes). DAG was extracted with other lipids and quantified through a phosphorylation reaction catalyzed by a bacterial DAG kinase.

Another test has as its system wild type cells. As to the kind of experiment: Diacylglycerol kinase assay of cellular DAG level, wild type. The settings on record: after 2-hour incubation with palmitate, from 1. The procedure: as §5
The mark [6] stands for this setting: mutant cells pretreated with TMPO (125 μg/ml) for 2 hours, then 1 mM palmitate for 2 hours.
Where [7] appears, read: DKO strain, early log phase cells, various concentrations of diC8 DAG, 0-3 hours.
Setting [8] is: caspase inhibitor added, data not shown.

With `CCCCCCCCCCCCC/C=C/[C@@H](O)[C@H](CO)NC(C)=O` [C2-ceramide, N-acetylsphigosine], in test [1], the DNA fragmentation entry is given as “no DNA fragmentation was observed” and the “killing of S. pombe cells” value was “could kill S. pombe cells at high concentrations”.

On to `CCCCCCCCCCCCCCC[C@@H](O)[C@@H](N)CO` [DHS, dihydrosphingosine], for which, in test [1], the DNA fragmentation entry is recorded as “no DNA fragmentation was observed” and the “killing of S. pombe cells” value is listed as “could kill S. pombe cells at high concentrations”.

On to `CCCCCCCCCCCCCC[C@@H](O)[C@@H](O)[C@@H](N)CO` [PHS, phytosphingosine], for which, in test [1], the DNA fragmentation result is listed as “no DNA fragmentation was observed” and the “killing of S. pombe cells” value was “could kill S. pombe cells at high concentrations”.

As to `CC1(C)C=[N+]([O-])C(C)(C)C1` [TMPO, 3,3,5,5,-tetramethyl-pyrroline N-oxide], the “prevention of cell death” value in test [2] (setting [6]) is “prevent DNA fragmentation (FIG. 24) and cell death”. In test [3] (setting [6]), the “prevention of DNA fragmentation” value is given as “prevent DNA fragmentation”. Further, the “scavenging of ROS” value with DKO cells [4] (setting [6]) is listed as “could effectively scavenge ROS”.

Turning to `CCCCCCCC(=O)OC[C@H](CO)OC(=O)CCCCCCC` [diC8 DAG, 1,2-dioctanoyl-sn-glycerol], the cell death entry in test [2] (setting [7]) is given as “cell death were observed in the DKO strain”. The “nuclear DNA fragmentation” value in test [3] (setting [7]) was “prominent nuclear DNA fragmentation”. Also, in test [3] (DKO strain, up to 3 hours, up to 0.3 mM), the “percentage of cells showing DNA fragmentation, dependence on time and concentration” value was “generally increases with time (up to 3 hours) and concentration”. In the test with DKO cells [4], the ROS production entry is on record as “induced dramatic ROS production”.

Consider `CCCC[C@@H](C)[C@@H](OC(=O)C[C@@H](CC(=O)O)C(=O)O)[C@H](C[C@@H](C)C[C@H](O)CCCC[C@@H](O)C[C@H](O)[C@H](C)N)OC(=O)C[C@@H](CC(=O)O)C(=O)O` [fumonisin B1], for which, in test [3] (data not shown), the “cells undergoing apoptosis in the presence of the inhibitor” value is listed as “more cells underwent apoptosis” and the “rescue of palmitate-induced apoptosis” value is on record as “no rescue of apoptosis was observed”.

As to `CCCCCCC(=O)CCCCCC/C=C/C[C@@H](O)[C@H](O)[C@@](N)(CO)C(=O)O` [myriocin], in test [3] (data not shown), the “cells undergoing apoptosis in the presence of the inhibitor” value is “more cells underwent apoptosis” and the “rescue of palmitate-induced apoptosis” value is on record as “no rescue of apoptosis was observed”.

For `CCCCCCCC/C=C\CCCCCCCC(=O)O` [oleate, oleic acid], the “apoptosis induced by fatty acid” value in test [3] is listed as “caused the DKO cells to undergo apoptosis”. For the same molecule, the ROS production result in the test on DKO cells [4] was “induced dramatic ROS production”. For the same molecule, in the test on DKO cells [5] (after 2-hour incubation with oleate, from 1), the DAG level is listed as 2.5 nM/mg dry weight.

With `CCCCCCCCCCCCCCCC(=O)O` [palmitate, palmitic acid], the DAG level in the test with wild type cells was 1.5 nM/mg dry weight; with DKO cells [5] (after 2-hour incubation with 0.8 mM palmitate, 1 nmol/mg dry weight before addition) it was 3.5 nmol/mg dry weight. Besides, in test [3], the “apoptosis induced by fatty acid” value is on record as “caused the DKO cells to undergo apoptosis”. For the same molecule, the ROS production result in the test on DKO cells [4] was “induced dramatic ROS production”.

Take `COC(=O)C[C@H](NC(=O)[C@H](C)NC(=O)[C@@H](NC(=O)OCc1ccccc1)C(C)C)C(=O)CF` [zVADfmk] (Cbz-Val-Ala-Asp(OMe)-CH2F): the “prevention of cell death” value in test [2] (setting [8]) was “failed to prevent cell death”. The “prevention of DNA fragmentation” value in test [3] (setting [8]) is “failed to prevent cell death and DNA fragmentation”.
